Laboratory results reported in US7053108B2, “Indoline compounds” (Les Laboratoires Servier, priority 2002, dated 2006).

What was measured:
Assay type in all cases: in vivo
[1] = test system: extracellular concentrations of dopamine and noradrenaline in the frontal cortex; test: Measurement of the extracellular concentrations of dopamine and noradrenaline in the frontal cortex of the conscious rat (microdialysis); settings: 40.0 mg/kg p.o., 30 minutes post administration, frontal cortex dialysate
Procedure: Measurement of the Extracellular Concentrations of Dopamine and Noradrenaline in the Frontal Cortex of the Conscious Rat
Dialysis. The surgery is performed under pentobarbital-induced anaesthesia (60 mg/kg, i.p.). The rats are placed in a Kopf stereotaxic device and a cannula guide (CMA Microdialysis AB, Stockholm, Sweden) is implanted in the frontal cortex at the coordinates: anteroposterior: +2.2, lateral: ±0.6, ventral deviation: −0.2. The rats are placed in separate cages and recover from the anaesthesia over 5 days. […]
Chromatography. Dopamine (DA) and noradrenaline (NA) are simultaneously measured as follows: 20 μl of dialysate sample are diluted with 20 μl of mobile phase (75 mM NaH2PO4, 20 μM EDTA, 1 mM sodium decanesulphonate, 17.5% methanol, 0.01% triethylamine, pH: 5.70) and 33 μl are analysed by HPLC using, for separation, an inversephase column (Hypersil C18, 150×4.6 mm; particle size 5 μm) thermostatically controlled at 43° C. and, for quantification, a coulometric detector (ESA5014, Coulochem II, ESA, Chelmsford, USA). […]
The compound of Example 1 (40.0 mg/kg, p.o.) causes a substantial increase in the extracellular concentrations of DA and NA in the dialysates collected from the frontal cortex of conscious rats. The data are expressed as the mean ±S.E.M. The levels of DA and NA are expressed with respect to the mean values before administration of the drug. […]

[2] = target: T1, 5-HT2c receptors (Rattus norvegicus, UniProt P08909); test: Penile erection test following administration of Ro 60-0175 (1.25 mg/kg, s.c.) in the rat; settings: Wistar rat; for % inhibition of penile erections: Ro 60-0175 1.25 mg/kg s.c. 30 min later
T1 construct: from tissue; host or cells: whole living male Wistar rat (in vivo)
T1 sequence (P08909 33-460): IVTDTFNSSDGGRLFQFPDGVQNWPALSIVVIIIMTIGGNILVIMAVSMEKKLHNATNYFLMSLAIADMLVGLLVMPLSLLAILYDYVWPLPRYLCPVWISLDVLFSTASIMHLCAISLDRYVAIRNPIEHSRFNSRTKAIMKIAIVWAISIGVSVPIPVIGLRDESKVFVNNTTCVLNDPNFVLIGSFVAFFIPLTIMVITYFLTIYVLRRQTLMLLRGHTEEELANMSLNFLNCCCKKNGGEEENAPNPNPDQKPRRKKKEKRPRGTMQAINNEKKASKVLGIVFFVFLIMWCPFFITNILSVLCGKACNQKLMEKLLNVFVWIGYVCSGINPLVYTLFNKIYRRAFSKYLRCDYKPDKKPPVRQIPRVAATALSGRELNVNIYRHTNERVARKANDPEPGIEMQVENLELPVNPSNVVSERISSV
Procedure: Penile Erection Test Following Administration of Ro 60-0175 (1.25 mg/kg, s.c.) in the Rat
This test allows evaluation of the capacity of pharmacological agents to inhibit penile erections caused by administration of a selective 5-HT2c agonist, Ro 60-0175. Inhibition is therefore predictive of antagonist activity with respect to 5-HT2c receptors. Male rats of the Wistar strain (Iffa-Credo, L'Arbresle, France) weighing 120–140 g on the day of the experiment are placed separately in plexiglass observation boxes (7.5×18×30 cm) immediately after the compound or the carrier has been administered. Thirty minutes later, Ro 60-0175 (1.25 mg/kg, s.c.) is administered to the animals and the number of erections occurring during the next 30 minutes is counted.

[3] = Social interaction test in the rat; settings: 1 hour before the test, Sprague-Dawley rat, carrier 183 ± 7
Procedure: Social Interaction Test in the Rat
This test allows evaluation of the potential anxiolytic activity of the compounds. Male rats of the Sprague-Dawley strain (Charles River, Saint-Aubin-les-Elbeuf, France) weighing 240–260 g on arrival are isolated in individual cages for 5 days in dimly lit animal quarters (3–10 lux). The test is carried out on the final day and consists of placing the animals in pairs, matched by weight (±5 g), in a brightly lit enclosure (300 lux) for 10 minutes. The time spent by the animals in interacting with one another (grooming, chasing, . . . ) is measured. The compound or the carrier is administered to the animals 1 hour before the test, each couple receiving the same treatment. The anxiolytic effect of a compound is reflected by an increased duration of interaction compared to that of animals to whom the carrier has been administered.

[4] = Vogel conflict test; settings: 30 minutes before test, 3 minutes, Wistar rat, carrier 77.1 ± 14.7
Procedure: The test is carried out in a transparent plastics cage (32×25×30 cm) located in a soundproofed and ventilated enclosure. The cage has a chrome steel floor. The metal tip of the drink-containing bottle enters the cage at a height of 6 cm above the metal floor. The floor and the tip of the bottle are connected by electric cables to an “Anxiometer” apparatus (Columbus Instruments, Ohio, USA), which records the licks of the animal and controls the administration of electric shocks.
For the 4 days preceding the test, the rats (male Wistar rats weighing 250–270 g) (3 per cage) have access to drink for only one hour per day. On the day before the test, the animals are isolated in cages, on grills, without food or drink, immediately after their final hour of access to drink. The test takes place on the 5th day. On the day of the test, the animal is given by gavage (p.o.) either the solvent (suspension of distilled water+Tween 80) (control) or the compound, 30 minutes before being placed in the test cage. The session begins as soon as the animal has carried out 20 licks and has received a first electric shock (between the metal tip and metal floor), (constant current, 0.5 sec. duration, 0.3 mA intensity). Subsequently, the animal receives an electric shock each time it carries out 20 licks, for a period of 3 minutes. Animals not having performed the first 20 licks of the session by the end of 5 minutes are withdrawn from the test. The results are the numbers of licks performed by the animal during the 3 minutes of the test.

In the case of `O=C(Nc1cccnc1)N1CCc2c1ccc1ccccc21` [Example 1, N-(3-Pyridyl)-1,2-dihydro-3H-benzo[e]indole-3-carboxamide], the “Extracellular DA level with respect to the mean values before administration (mean ±S.E.M.)” value ([1]; solvent = +3.9±9.8, in % (unit assumed)) was “+95.0±12.9”, the “Extracellular NA level with respect to the mean values before administration (mean ±S.E.M.)” value ([1]; solvent = +8.7±11.9, in % (unit assumed)) was “+118.2±16.7” and the “% inhibition of penile erections” value ([2]; 0.25 mg/kg p.o.) was 12%. For the same compound, the “% inhibition of penile erections” value ([2]; 0.63 mg/kg p.o.) was 16%, the “% inhibition of penile erections” value ([2]; 1.00 mg/kg p.o.) was 50% and the “% inhibition of penile erections” value ([2]; 2.5 mg/kg p.o.) was 88%. For the same compound, the “% inhibition of penile erections” value ([2]; 10.0 mg/kg p.o.) was 100%, the ED50 ([2]; po, inhibition of Ro 60-0175-induced penile erections, p.o., read-out: ID50 (inhibitory dose50)) was 1.16 mg/kg and the “Duration of social interactions (s) mean ± s.e.m. (n)” value (from here on “Duration of social interactions”) ([3]; 0.16 mg/kg p.o.) was 187 ± 11 (5) s. The “Duration of social interactions” value ([3]; 0.63 mg/kg p.o., p < 0.05) was 228 ± 11 (5) s, the “Duration of social interactions” value ([3]; 2.5 mg/kg p.o., p < 0.05) was 242 ± 15 (5) s and the “Duration of social interactions” value ([3]; 10.0 mg/kg p.o., p < 0.05) was 233 ± 10 (5) s. For the same compound, the “Punished licks (1 shock/20 licks) Mean ± s.e.m. (n)” value (“Punished licks” for short) ([4]; 2.5 mg/kg p.o.) was 92.2 ± 20.7 (5), the “Punished licks” value ([4]; 10.0 mg/kg p.o.) was 145.2 ± 46.3 (5) and the “Punished licks” value ([4]; 40.0 mg/kg p.o., p < 0.05) was 324.4 ± 70.7 (10).
